According to US6106844A, “Immunomodulatory peptides of vespid antigen 5” (The Rockfeller University, priority 1998, dated 2000):

B1: Tpx-C: recombinant fragment of mouse testis protein Tpx, residue 101-163 (protein)
chain: MSTDPTLWSTVIQSWYNENEDFVYGVGAKPNSAVGHYTQLVWYSSFKIGCGIAYCPNQDNLKY
B2: Tpx-N: recombinant fragment of mouse testis protein Tpx, residue 14-106 (protein)
chain: LLRSPLTEGKDPDFTSLLTNQLQVQREIVNKHNELRRSVNPTGSDILKMEWSIQATTNAQKWANKCILEHSSKDDRKINIRCGENLYMSTDPT
B3: fragment IN: recombinant N-terminal fragment of hornet antigen 5, residue 1-114 (protein)
chain: PIINLSFGEANNYCKIKCSRGIHTLCKFGTSMKPNCGSKLVKVHGVSNDEKNEIVNRHNQFRQKVAKGLETRGNPGPQPPAKNMNVLVWNDELAKIAQTWANQCSFGHDQCRNT

Key:
Type in all cases: cell-based
[1] = tested on: r-Ag5 specific spleen cells from mice of different strains; assay: Summary of proliferation indices across mouse strains; conditions: four strains BALB/c, ASW/Sn, C3H/He, P/J, C57B1/6 excluded
Description: Summary of proliferation indices of r-Ag5 specific spleen
cells from mice of different strains on stimulation with the
dominant T cell epitope peptides^1
^1 Dominant T cell epitopes are defined as those peptides which showe
stimulation indices of ≥4 in at least one of 5 strains of mice
The present Example defines indices of 4 or greater for proliferation of Ag5- specific cells as containing a T cell epitope of Ag5. With this definition, the data in FIGS. 3-13 for mice of 5 strains with different haplotypes would indicate that the T cell epitopes of Ag5 are distributed throughout the entire molecule. As C57B1/6 mice is a poor responder, its data are excluded in the following comparison.
The data in Table 4 indicate that 14 peptides contain T cell epitopes of Ag5. Three of these peptides are recognized by three of the four strains tested, five of them by two strains and the remaining six by only one strain. […] They are peptides 1, 2, 5, 6, 9, 15, 20 and 18. […] This is particularly apparent for peptides 6, 20, and 18.

[2] = tested on: Ag5 specific spleen cells from BALB/c mice; assay: In vitro proliferation assay, spleen cells of Ag5-immunized BALB/c mice; conditions: for Stimulation Index BALB/c: spleen cells from mice immunized with rAg5, blank 3970 cpm
Procedure: (§1) FIG. 4. Stimulation index profile of BALB/c mice spleens after 4 immunizations with natural (n)-Ag5. In vitro proliferation assays were performed with peptides at three concentrations: 1×10^-5 M (open bar), 1.25×10^-6 M ("uphill" hatch), and 1.56×10^-7 M ("downhill" hatch). The corresponding concentrations of recombinant antigen 5 control were 1.0×10^-6 M, 1.25×10^-7, and 1.56×10^-8 M. The blank was 2200 cpm.
as §1, with “5.” for “4.”, “recombinant (r)-Ag5.” for “natural (n)-Ag5.”, “Antigen” for “antigen”, “5” for “5 control”, “4700” for “2200”
FIG. 6. […] In vitro proliferation assays were performed with peptides at three concentrations: 1×10^-5 M (open bar), 1.25×10^-6 M ("uphill" hatch), and 1.56×10^-7 M ("downhill" hatch). The corresponding concentrations of recombinant Antigen 5 were 1.0×10^-6 M, 1.25×10^-7, and 1.56×10^-8 M. […]
(§2) The peptides of the invention can be tested in a proliferation assay for T cell responses. Generally, lymphocytes from a sensitized host are obtained. The host can be a mouse that has been immunized with a vespid venom antigen 5, or with a crossreactive protein, such as testes specific protein. Using techniques that are well known in the art, T lymphocyte response to the peptide can be measured in vitro. In a specific embodiment, infra, T cell responses are detected by measuring incorporation of ^3 H-thymidine, which increases with DNA synthesis associated with proliferation. Cell proliferation can also be detected using an MTT assay [Mossman, J. Immunol. Methods, 65:55-63,(1983); Niks and Otto, J. Immunol. Methods, 130:140-151 (1990)]. Alternatively, lymphokine production assays can be practiced according to the present invention. In one embodiment, lymphokine production can be assayed using immunological or co-stimulation assays [see, e.g., Fehlner et al., J. Immunol., 146:799 (1991)] or using the ELISPOT technique [Czerkinsky, et al., J. Immunol. Methods, 110:29 (1988)]. Alternatively, mRNA for lymphokines can be detected, e.g., by amplification [see Brenner, et al., Biotechniques, 7:1096 (1989)] or in situ hybridization [see, e.g., Kasaian and Biron, J. Immunol., 142:1287 (1989)]. Of particular interest are those individuals whose T cells produce lymphokines associated with IgE isotype switch events, e.g., IL-4 and IL-5 [Purkeson and Isakson, J. Exp. Med., 175:973-982 (1992)]. Also of interest are the peptide fragments of the vespid venom antigen 5 that contain epitopes recognized by T cells involved in IgE switch events. […]

[3] = tested on: r-Ag5 specific spleen cells from ASW/Sn mice; assay: In vitro proliferation assay, spleen cells of r-Ag5-immunized ASW/Sn mice; conditions: spleen cells from mice immunized 5 times with rAg5; blank 5640 cpm
Procedure: (§3) FIG. 11. Stimulation index profile of ASW/sn mice spleens after 5 immunizations with r-Ag5. In vitro proliferation assays were performed with peptides at three concentrations: 1×10^-5 M (open bar), 1.25×10^-6 M ("uphill" hatch), and 1.56×10^-7 M ("downhill" hatch). The corresponding concentrations of recombinant Antigen 5 were 1.0×10^-6 M, 1.25×10^-7, and 1.56×10^-8 M. The blank was 5640 cpm.
as §2

[4] = tested on: r-Ag5 specific spleen cells from C57B1/6 mice; assay: In vitro proliferation assay, spleen cells of r-Ag5-immunized C57B1/6 mice; conditions: spleen cells from mice immunized 5 times with rAg5; blank 1050 cpm
Procedure: as §3, with “14.” for “11.”, “CS7B1/6” for “ASW/sn”, “1.56×10 ^-7” for “1.56×10^-7”, “1050” for “5640”
(§4) The peptides of the invention can be tested in a proliferation assay for T cell responses. Generally, lymphocytes from a sensitized host are obtained. The host can be a mouse that has been immunized with a vespid venom antigen 5, or with a crossreactive protein, such as testes specific protein. Using techniques that are well known in the art, T lymphocyte response to the peptide can be measured in vitro. In a specific embodiment, infra, T cell responses are detected by measuring incorporation of ^3 H-thymidine, which increases with DNA synthesis associated with proliferation. Cell proliferation can also be detected using an MTT assay [Mossman, J. Immunol. Methods, 65:55-63,(1983); Niks and Otto, J. Immunol. Methods, 130:140-151 (1990)]. […] Alternatively, mRNA for lymphokines can be detected, e.g., by amplification [see Brenner, et al., Biotechniques, 7:1096 (1989)] or in situ hybridization [see, e.g., Kasaian and Biron, J. Immunol., 142:1287 (1989)]. […]

[5] = tested on: Tpx-C primed spleen cells from BALB/c mice; assay: In vitro proliferation assay, Tpx-C primed spleen cells; conditions: BALB/c mice after 4 immunizations with r-fragment Tpx-C (residue 101-163)
Procedure: FIG. 16. Stimulation index profile of BALB/c mice spleen cells after 4 immunizations with Tpx-C. Stimulation was tested with peptide or protein at three different concentrations: Open bars--1×10^-5 M peptide, 5×10^-6 M Frag C or Tpx-C; "uphill" hatch--1.25×10^-6 M peptide; 6.25×10^-7 M Frag C or Tpx-C; "downhill" hatch--1.56×10^-7 M peptide, 7.8×10^-8 M Frag C, Tpx-C: and stippled--9.75×10^-9 M Frag-C or Tpx-C. The blank was 5110 cpm.
as §2

[6] = tested on: r-Ag5 specific spleen cells from C3H/He mice; assay: In vitro proliferation assay, spleen cells of r-Ag5-immunized C3H/He mice; conditions: spleen cells from mice immunized 5 times with rAg5; blank 3130 cpm
Procedure: as §3, with “13.” for “11.”, “C3H/He” for “ASW/sn”, “3130” for “5640”
as §4

[7] = tested on: Tpx-N primed spleen cells from BALB/c mice; assay: In vitro proliferation assay, Tpx-N primed spleen cells; conditions: BALB/c mice after 4 immunizations with r-fragment Tpx-N (residue 14-106)
Procedure: FIG. 15. Stimulation index profile of BALB/c mice spleen cells after 4 immunizations with Tpx-N. Stimulation was tested with peptide or protein at three different concentrations: Open bars--1.0×10^-5 M peptide or Frag IN, 2.5×10^-6 M Tp X-N; "uphill" hatch--1.25×10^-6 M peptide or Frag IN. 3.13×10^-7 M, Tpx-N; "downhill" hatch--1.5×10^-7 M peptide and Frag IN, 3.91×10^-8 M Tpx-N; and stippled --1.96×10^-8 M Frag IN, 4.89×10^-9 M Tpx-N. The blank was 7270 cpm.
as §2, with “(1992)].” for “(1992)]. Also of interest are the peptide fragments of the vespid venom antigen 5 that contain epitopes recognized by T cells involved in IgE switch events.”

Row | Molecule | recognition by more than one mouse strain (stimulation indices of ≥4) [1] | Stimulation Index BALB/c [2] | Stimulation Index ASW/Sn [3] | Stimulation Index C57B1/6 [4] | stimulation indices, Tpx-C primed spleen cells (FIG. 16) [5] | stimulation indices, Tpx-N primed spleen cells (FIG. 15) [7] | also measured
1 | GIHTLCKFGTSMKPNCGRNV [Peptide 2, white face hornet antigen 5 form 2, residue 11-30] | recognized by two or three strains of mice | 2.9 | 2.2 | 1.9 | – | – | recognition by more than one mouse strain (stimulation indices of ≥4) ([1]; listed as SEQ ID NO:9): dominant in more than one strain of mouse
2 | fragment C: recombinant C-terminal fragment of hornet antigen 5, residue 151-204 (NPKKGTMGDNNFSKVGHYTQMVWGKTKEIGCGSVKYIENNWHTHYLVCNYGPAG) | – | – | – | – | 9 | – | stimulation indices, Tpx-C primed spleen cells (FIG. 16) ([5]; listed as r-fragment C): responded equally well
3 | NNYCKIKCRKGIHTLCKFGT [Peptide 1, white face hornet antigen 5 form 2, residue 1-20] | recognized by two or three strains of mice | 8.6 | 1.9 | 2.5 | – | – | recognition by more than one mouse strain (stimulation indices of ≥4) ([1]; listed as SEQ ID NO:8): dominant in more than one strain of mouse; stimulation indices (FIG. 4-6 together) ([2]; BALB/c mice immunized 4 times with n-Ag5 or with r-Ag5): ≥ 4; Stimulation Index C3H/He [6]: 2.4
4 | B1 | – | – | – | – | greater than 15 | – | –
5 | B2 | – | – | – | – | – | greater than 6 | –
6 | B3 | – | – | – | – | – | greater than 6 | stimulation indices, Tpx-N primed spleen cells (FIG. 15) ([7]; listed as r-fragment IN): responded equally well
